Measured values as given in US5624924A, “Quinobenzothiazine antineoplastic agents” (priority 1994, dated 1997).
Values after ≈ are worked out from the molar mass of the structure shown. Where a name gives a salt, the structure may show the parent alone. Read-outs that look alike come from different tables or passages of the source.

What was measured:
[1] = system: P388-D1 mouse leukemia cell line; assay: In vitro cytotoxicity (MTT), P388-D1; type: cell-based; settings: for IC50: Mus musculus, P388D1, 72 h, read-out: In Vitro Cytotoxicity (IC50), P388-D1
Procedure: (§1) Metabolic activity was measured by the cells' ability to reduce the tetrazolium dye, 3-(4,5-dimethylthiazol-2-yl)-2,5-diphenyltetrazolium bromide (MTT), to a quantifiable colored formasan derivative. Surviving cells reduce the MTT dye. The inhibitory concentrations of killing 50% of the cells (IC50 s) were calculated. Testing was in accord with the following protocol:
(§2) Test compounds and a reference antineoplastic agent, ADRIAMYCIN (doxorubicin hydrochloride), were dissolved in dimethyl sulfoxide (DMSO) and diluted, first with Earle's Balanced Salt Solution, followed by culture medium, to twice the highest concentration of the compound to be tested. From this concentrated stock, two-fold serial dilutions were prepared in 96-well microtiter trays, each well containing twice the desired final concentration of the compound. Each concentration was tested in triplicate and compared to triplicate drug-free controls.
(§3) The cells were grown in the same medium used for diluting the compounds. Adherent cells were harvested by trypsinization according to the following procedure:
(§4) After harvesting by trypsinization, viable cell counts were determined and cell density was adjusted to 25,000 cells/mL. Inoculum (0.1 mL) was then added to each well for a final concentration of 2,500 cells per well. Addition of the inoculum was used to dilute the test compounds to the desired concentration.
(§5) Microtiter trays were incubated for three days at 36° C. in a humidified atmosphere containing 5% carbon dioxide.
(§6) After three days, 20 microliters of 5 mg/mL MTT in phosphate-buffered solution were added to each well of the microtiter trays. The microtiter trays were then returned to the incubator for two to four hours to allow the surviving cells to reduce the dye. After this incubation, both the medium and the unreduced dye were removed by aspiration. DMSO was added to each well to dissolve the water-insoluble, colored end product of the dye reduction for spectrophotometric measurement at 570 nm.
(§7) The results obtained which clearly show the cytotoxicity of the compounds of Examples 5, 6, 7 and 8 against […] tumor cell lines A549, HCT-8, HT-29 and P388-D1, are illustrated in Table 1. (A549 is a human lung cancer cell line; HCT-8 is a human colon cancer cell line; HT-29 is a human colon cancer cell line; and P388-D1 is a mouse leukemia cell line.)

[2] = system: P388-ADR(0.1), ADRIAMYCIN-resistant variant of P388; assay: In vitro cytotoxicity (MTT), P388-ADR(0.1); type: cell-based; settings: Mus musculus, 72 h, inoculum grown with 0.1 mcg.ml ADRIAMYCIN, Table 2, ADR value marked *: single test
Procedure: as §1, §2, §3, §4, §5
as §6, with “nm. […]” for “nm.”

[3] = system: P388-ADR(0.0), ADRIAMYCIN-resistant variant of P388; assay: In vitro cytotoxicity (MTT), P388-ADR(0.0); type: cell-based; settings: Mus musculus, 72 h, inoculum grown in drug-free medium, Table 2
Procedure: as §1, §2, §3, §4, §5, §6
(§8) Compounds from Examples 4, 6, 8, 9 and 10 were additionally tested against human and murine tumor cell lines A549, HT-29, P388-D1, P388, P388-ADR(0.0), P388-ADR(0.1) and B16F109. (P388 is a mouse leukemia cell line similar to P388-D1, but animal-passaged; P388-ADR (0.0) is an ADRIAMYCIN-resistant variant of P388, the inoculum of which is grown in drug-free medium; P388-ADR (0.1) is an ADRIAMYCIN-resistant variant of P388, the inoculum of which is grown in medium with 0.1 mcg.ml ADRIAMYCIN; and B16F10 is a mouse melanoma.) The results are presented in Table 2; as shown in the table, the compounds of the present invention are effective cytotoxic agents even against the ADRIAMYCIN-resistant cell line P388-ADR.

[4] = system: HT-29 human colon cancer cell line; assay: In vitro cytotoxicity (MTT), HT-29; type: cell-based; settings: HT-29, 72 h
Procedure: as §1, §2, §3, §4, §5, §6, §7

[5] = system: A549 human lung cancer cell line; assay: In vitro cytotoxicity (MTT), A549; type: cell-based; settings: A549, 72 h
Procedure: as §1, §2, §3, §4, §5, §6, §7

[6] = system: B16F10 mouse melanoma; assay: In vitro cytotoxicity (MTT), B16F10; type: cell-based; settings: B16-F10, 72 h, read-out: In Vitro Cytotoxicity (IC50)
Procedure: as §1, §2, §3, §4, §5, §6, §8

[7] = system: P388 mouse leukemia cell line; assay: In vitro cytotoxicity (MTT), P388; type: cell-based; settings: P388, 72 h, read-out: In Vitro Cytotoxicity (IC50)
Procedure: as §1, §2, §3, §4, §5, §6, §8

[8] = system: HCT-8 human colon cancer cell line; assay: In vitro cytotoxicity (MTT), HCT-8; type: cell-based; settings: HCT-8, 72 h, read-out: In Vitro Cytotoxicity (IC50)
Procedure: as §1, §2, §3
as §4, with “concentration. […]” for “concentration.”

[9] = system: P388 ascitic leukemia; assay: In vivo activity against systemic tumor P388; parameters: species or system mouse; settings: five days
Procedure: Prior to testing, P388 was propagated intraperitoneally in female DBA2 mice. The ascitic tumors were intraperitoneally injected in female B6 D2 F1 mice at a concentration of 10^6 cells per mouse. The mice were treated with antiumor agents administered once daily for five consecutive days, with the antineoplastic 5-fluorouracil used as a positive control.
All drugs were administered intraperitoneally in 5% aqueous dextrose or other suitable diluent. Drug efficacy was evaluated based on prolongation of mean survival time (MST). Improvement of MST was calculated as % MST(T/C), the percent ratio of mean survival times of test (T) versus control (C) mice. Compounds having % MST(T/C) values greater than 125 are considered to have significant activity. The antitumor activity of the two compounds in the P388 systemic leukemia model is illustrated in Table 3 below.

[10] = system: C-26 colon adenocarcinoma; assay: In vivo activity against C-26 colon adenocarcinoma implanted IP (Example 42); parameters: species or system mouse; settings: dose 40, IP days 1, 5, 9
Procedure: In the case of C-26 colon adenocarcinema, the tumor was implanted IP into mice on day 0. The compound to be tested. (the compound of Example 8) was administered IP at days 1, 5, and 9 and the results recorded on day 60. % MST(T/C) values were calculated as before and are shown below for two separate trials.

[11] = Aqueous solubility; type: physicochemical; settings: water
Text: The effect of peptidyl substitution on the solubility of the compounds of the invention was examined by dissolving samples thereof in water.

[12] = system: M5076 ovarian sarcoma; assay: In vivo activity against M5076 ovarian sarcoma implanted subcutaneously; parameters: species or system mouse; settings: IP every 2 days, days 1-11
Procedure: For M5076 ovarian sarcoma, the solid tumor was implanted subcutaneously into mice on day 0. The compound to be tested (the compound of Example 8) was administered IP every 2 days up to day 11, starting on day 1. Both % MST(T/C) and % MTM(T/C) values were calculated, and are presented below.

[13] = system: Lewis lung carcinoma; assay: In vivo activity against Lewis lung carcinoma (subcutaneous); parameters: species or system mouse; settings: IP days 1-9, tumor weight day 14
Procedure: Compound A and the compound of Example 8 were also tested against solid tumors, namely Lewis lung carcinoma on the one hand and C-26 colon adenocarcinoma and M5076 ovadan sarcoma on the other. Lewis lung carcinoma was inoculated subcutaneously to flanks of mice on day 0. The compound being tested (Compound A) was administered intraperitoneally (IP) from day 1 to day 9 for a total of nine injections. Tumor weights were measured on day 14 and drug efficacy assessed based on reduction of mean tumor mass (MTM), expressed as the percent ratio of treated (T) to control (C) MTM's. Compounds having % MTM(T/C) values of less than or equal to 40 are considered to have significant activity. These values are shown below in Table 4.

[14] = Table 2, ADR value marked *: single test
[15] = read-out: In Vitro Cytotoxicity (IC50), HT-29, Table 2, ADR: average of two tests
[16] = read-out: In Vitro Cytotoxicity (IC50), A549, Table 1, three day MTT assay
[17] = read-out: In Vitro Cytotoxicity (IC50), A549, Table 2, ADR: average of two tests

Cc1ccc2c(c1)Oc1c(N3CCC(N)C3)c(F)cc3c(=O)c(C(=O)O)cn-2c13 (stereo not drawn) [Example 6, 1-(3-aminopyrrolidin-1-yl)-2-fluoro-9-methyl-4-oxo-4H-quino[2,3,4-i,j][1,4]benzoxazine-5-carboxylic acid hydrochloride]
IC50 ([1]; Table 1, three day MTT assay): 0.067 µg/mL | IC50 [1, 14]: 0.08 µg/mL | IC50 [2]: 0.2 µg/mL | IC50 [3]: 0.2 µg/mL | IC50 ([4]; read-out: In Vitro Cytotoxicity (IC50), HT-29, Table 1, three day MTT assay): 0.049 µg/mL | IC50 [4, 15]: 0.076 µg/mL | IC50 [5, 16]: 0.13 µg/mL | IC50 [5, 17]: 0.23 µg/mL | IC50 [6]: 0.056 µg/mL | IC50 [7]: 0.071 µg/mL

Cc1ccc2c(c1)Oc1c(N3CCC(NC(=O)[C@H](C)N)C3)c(F)cc3c(=O)c(C(=O)O)cn-2c13 (stereo partly drawn) [Example 9, 1-(3-alanylaminopyrrolidin-1-yl)-2-fluoro-9-methyl-4-oxo-4H-quino[2,3,4-i,j][1,4]benzoxazine-5-carboxylic acid hydrochloride]
IC50 [1, 14]: 0.081 µg/mL | IC50 [2]: 0.18 µg/mL | IC50 [3]: 0.19 µg/mL | IC50 [4, 15]: 0.075 µg/mL | IC50 [5, 17]: 0.23 µg/mL | IC50 [6]: 0.048 µg/mL | IC50 [7]: 0.062 µg/mL

COc1cccc2c1C(=O)c1c(O)c3c(c(O)c1C2=O)C[C@@](O)(C(=O)CO)C[C@@H]3O[C@H]1C[C@H](N)[C@H](O)[C@H](C)O1 [ADR, doxorubicin hydrochloride, reference compound]
IC50 ([1]; Table 1, three day MTT assay): 0.016 µg/mL | IC50 [1, 14]: 0.025 µg/mL | In Vitro Cytotoxicity (IC50) ([1]; P388-D1, Table 1, three day MTT assay, 4320 min, hydrochloride): 0.010 | IC50 [2]: 1.9 µg/mL | IC50 [3]: 2.59 µg/mL | IC50 [4, 15]: 0.285 µg/mL | IC50 [8]: 0.038 µg/mL | IC50 [5, 17]: 0.313 µg/mL | IC50 [6]: 0.005 µg/mL | IC50 [7]: 0.0022 µg/mL

CCC[C@H](N)C(=O)NC1CCN(c2c(F)cc3c(=O)c(C(=O)O)cn4c3c2Oc2ccccc2-4)C1 (stereo partly drawn) [Example 8, 1-(3-norvalylaminopyrrolidin-1-yl)-2-fluoro-4-oxo-4H-quino[2,3,4-i,j][1,4]benzoxazine-5-carboxylic acid hydrochloride]
% MST(T/C) ([9]; 3.9 mg/kg IP once daily): 177.3% | % MST(T/C) ([9]; 7.81 mg/kg IP once daily): 200.0% | % MST(T/C) ([9]; 15.62 mg/kg IP once daily): 209.1% | % MST(T/C) ([9]; 31.25 mg/kg IP once daily): 63.6% | IC50 ([1]; Table 1, three day MTT assay): < 0.05 µg/mL | IC50 [3]: 0.394 µg/mL | IC50 [4, 15]: 0.195 µg/mL | C-26 % MST(T/C) ([10]; first trial): 52.3% | C-26 % MST(T/C) ([10]; second trial): 43.9% | IC50 [8]: 0.075 µg/mL | IC50 [5, 16]: 0.512 µg/mL | IC50 [5, 17]: 0.591 µg/mL | solubility [11]: 10700 µg/mL | IC50 [6]: 0.0271 µg/mL | IC50 [7]: 0.0395 µg/mL | M5706 % MST(T/C) ([12]; dose 5): 148.4% | M5706 % MTM(T/C) ([12]; dose 5): 62% | M5706 % MST(T/C) ([12]; dose 10): 154.4% | M5706 % MTM(T/C) ([12]; dose 10): 49% | M5706 % MST(T/C) ([12]; dose 20): 138.1% | M5706 % MTM(T/C) ([12]; dose 20): 22% | M5706 % MST(T/C) ([12]; dose 40): 39.1%

NC1CCN(c2c(F)cc3c(=O)c(C(=O)O)cn4c3c2Oc2ccccc2-4)C1 (stereo not drawn) [Compound A, 1-(3-aminopyrrolidin-1-yl)-2-fluoro-4-oxo-4H-[2,3,4-i,j][1,4]benzoxazine-5-carboxylic acid]
% MST(T/C) ([9]; 6.25 mg/kg IP once daily): 160% | % MST(T/C) ([9]; 12.5 mg/kg IP once daily): 165% | % MST(T/C) ([9]; 25 mg/kg IP once daily): 170% | % MST(T/C) ([9]; 50 mg/kg IP once daily): 180% | IC50 [3]: 0.12 µg/mL (≈ 0.315 µM) | IC50 [4, 15]: 0.1 µg/mL (≈ 0.262 µM) | IC50 [5, 17]: 0.26 µg/mL (≈ 0.682 µM) | solubility [11]: 8800 µg/mL (≈ 23100 µM) | Lewis Lung % MTM(T/C) ([13]; dose 6.25): 68% | Lewis Lung % MTM(T/C) ([13]; dose 12.5): 67% | Lewis Lung % MTM(T/C) ([13]; dose 25): 47% | Lewis Lung % MTM(T/C) ([13]; dose 50): 41% | IC50 [6]: 0.021 µg/mL (≈ 0.0551 µM) | IC50 [7]: 0.019 µg/mL (≈ 0.0498 µM)
